Assay results published in patent US20220233563A1, “Methods of Treatments Based Upon Anthracycline Responsiveness” (The Board of Trustees of the Leland Stanford Junior …, priority 2019, published 2022).

Assays:
[1] = system: HCC1954 breast cancer cell line; conditions: unmodified HCC1954, ER-/HER2+, not TOP2A amplified; cited from earlier work
[2] = system: HCC1954 breast cancer cell line; experiment: Cell viability after drug treatment of HCC1954 cells with inducible shRNA knockdown of KAT6B; type: cell-based; conditions: three inducible shRNA constructs against KAT6B in HCC1954; FIG. 31
Procedure: A similar experiment was performed by knocking down KAT6B expression to evaluate the role of KAT6B expression in anthracycline sensitivity. Three inducible shRNA knockdown constructs were used to lower the levels of KAT6B protein in the HCC1954 breast cancer cell line.

[3] = system: HCC1954 breast cancer cell line; experiment: Cell viability after drug treatment of HCC1954 cells with inducible shRNA knockdown of KDM4B; type: cell-based; conditions: KDM4B knocked down four days, then drug for three days; normalized to DMSO vehicle-only controls; FIG. 26
Procedure: To functionally evaluate the role of KDM4B expression in anthracycline sensitivity, three inducible shRNA knockdown constructs were used to lower the levels of KDM4B protein in the HCC1954 breast cancer cell line (FIG. 24). […] The expression KDM4B was knocked down for four days, and then the cells were treated with either doxorubicin, etoposide (a non-anthracycline TOP2 inhibitor) or paclitaxel (a taxane commonly used to treat breast cancer that functions via tubulin inhibition) for three days, after which cell viability was measured (FIG. 25). All experiments were normalized to DMSO vehicle-only controls and were performed under both induced and non-induced conditions.

Compound	doxorubicin sensitivity of the HCC1954 cell line [1]	change in drug sensitivity (cell viability) upon knockdown of KAT6B [2]	change in drug sensitivity (cell viability) upon knockdown of KDM4B [3]
COc1cccc2c1C(=O)c1c(O)c3c(c(O)c1C2=O)C[C@@](O)(C(=O)CO)C[C@@H]3O[C@H]1C[C@H](N)[C@H](O)[C@H](C)O1 [doxorubicin]	doxorubicin-sensitive	induced resistance	induced resistance
COc1cc([C@@H]2c3cc4c(cc3[C@@H](O[C@@H]3O[C@@H]5CO[C@@H](C)O[C@H]5[C@H](O)[C@H]3O)[C@H]3COC(=O)[C@H]23)OCO4)cc(OC)c1O [etoposide]		induced resistance	induced resistance
CC(=O)O[C@H]1C(=O)[C@@]2(C)[C@H]([C@H](OC(=O)c3ccccc3)[C@]3(O)C[C@H](OC(=O)[C@H](O)[C@@H](NC(=O)c4ccccc4)c4ccccc4)C(C)=C1C3(C)C)[C@]1(OC(C)=O)CO[C@@H]1C[C@@H]2O [paclitaxel]		remained sensitive	remained sensitive
